Data from ChEMBL document CHEMBL3039007, “Structure-based identification of OATP1B1/3 inhibitors” (Mol Pharmacol, 2013).

Assays:
[1] = target: T1, Solute carrier organic anion transporter family member 1B1 (Homo sapiens, UniProt Q9Y6L6); conditions: chinese hamster, cho, 10 µM
T1 sequence (Q9Y6L6 whole entry): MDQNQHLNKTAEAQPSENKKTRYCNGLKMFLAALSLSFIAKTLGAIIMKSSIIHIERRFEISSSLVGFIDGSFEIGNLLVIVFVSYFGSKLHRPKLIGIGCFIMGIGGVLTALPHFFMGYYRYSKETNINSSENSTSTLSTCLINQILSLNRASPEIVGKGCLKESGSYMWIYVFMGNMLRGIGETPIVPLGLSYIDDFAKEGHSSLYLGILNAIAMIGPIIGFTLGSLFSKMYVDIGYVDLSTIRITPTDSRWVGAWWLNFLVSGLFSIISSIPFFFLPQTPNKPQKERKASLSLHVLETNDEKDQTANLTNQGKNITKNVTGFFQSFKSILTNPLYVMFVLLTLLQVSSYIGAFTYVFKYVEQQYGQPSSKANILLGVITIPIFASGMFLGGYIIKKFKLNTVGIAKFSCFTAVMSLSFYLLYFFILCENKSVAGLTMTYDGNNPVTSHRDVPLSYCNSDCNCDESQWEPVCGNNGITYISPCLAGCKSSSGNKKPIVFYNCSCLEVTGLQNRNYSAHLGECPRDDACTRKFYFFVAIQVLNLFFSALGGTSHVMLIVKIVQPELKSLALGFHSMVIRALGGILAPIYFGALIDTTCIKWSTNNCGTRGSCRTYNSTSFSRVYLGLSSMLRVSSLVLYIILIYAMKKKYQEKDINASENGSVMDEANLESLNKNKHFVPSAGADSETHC

[2] = target: T2, Solute carrier organic anion transporter family member 1B3 (Homo sapiens, UniProt Q9NPD5); conditions: chinese hamster, cho, 10 µM
T2 sequence (Q9NPD5 whole entry): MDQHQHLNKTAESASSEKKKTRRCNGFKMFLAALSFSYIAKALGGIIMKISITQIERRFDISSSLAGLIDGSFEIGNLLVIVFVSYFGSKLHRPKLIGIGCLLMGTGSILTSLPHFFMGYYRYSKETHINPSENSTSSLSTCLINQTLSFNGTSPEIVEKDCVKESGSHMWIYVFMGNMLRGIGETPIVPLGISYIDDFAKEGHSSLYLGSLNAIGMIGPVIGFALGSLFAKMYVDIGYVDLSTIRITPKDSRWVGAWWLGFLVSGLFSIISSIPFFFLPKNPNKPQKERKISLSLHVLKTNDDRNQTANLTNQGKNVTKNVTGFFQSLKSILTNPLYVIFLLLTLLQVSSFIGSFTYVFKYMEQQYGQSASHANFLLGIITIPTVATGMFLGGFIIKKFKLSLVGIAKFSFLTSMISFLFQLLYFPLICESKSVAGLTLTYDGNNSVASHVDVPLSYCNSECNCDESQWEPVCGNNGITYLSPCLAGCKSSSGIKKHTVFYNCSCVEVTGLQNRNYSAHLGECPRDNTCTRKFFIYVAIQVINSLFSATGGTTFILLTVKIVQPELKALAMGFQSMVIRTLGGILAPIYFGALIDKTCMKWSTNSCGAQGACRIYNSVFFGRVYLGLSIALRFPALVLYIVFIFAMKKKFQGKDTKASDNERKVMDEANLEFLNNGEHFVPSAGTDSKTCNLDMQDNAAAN

SMILES | residual activity [1] [%] | residual activity [2] [%]
CC(=O)O[C@H]1CC[C@@]2(C)[C@H](CC[C@@H]3[C@@H]2CC[C@]2(C)[C@@H](C4=CC(=O)OC4)[C@@H](OC(C)=O)C[C@]32O)C1 [GITOXIGENIN DIACETATE] | 111.6 | 118.5
CC(=O)OCC(=O)[C@@]1(O)[C@H](C)C[C@H]2[C@@H]3CCC4=CC(=O)C=C[C@]4(C)[C@@]3(F)[C@@H](O)C[C@@]21C [DEXAMETHASONE ACETATE] | 106 | 88.69
Clc1ccc(COC(Cn2ccnc2)c2ccc(Cl)cc2Cl)cc1.O=[N+]([O-])O (centres undefined) [ECONAZOLE NITRATE] | 146.5 | 127.4
Nc1ccc(S(N)(=O)=O)cc1 [SULFANILAMIDE] | 113.8 | 155.8
C[C@H]1CCCC(=O)CCC/C=C/c2cc(O)cc(O)c2C(=O)O1 [ZEARALENONE] | 55.9 | 91.51
COc1cccc2c1CCC1CC(=O)CC[C@]21C (some centres undefined) [14-METHOXY-4,4-BISNOR-8,11,13-PODOCARPATRIEN-3-ONE] | 118 | 100.9
CNC(=N)NCCC[C@H](N)C(=O)O [TILARGININE] | 94.97 | 97.33
Cc1onc(-c2ccccc2)c1C(=O)N[C@@H]1C(=O)N2[C@@H]1SC(C)(C)[C@@H]2C(=O)[O-].[Na+] | 76.67 | 90.07
O=c1c(O)c(-c2ccccc2)oc2cc(O)ccc12 [3,7-DIHYDROXYFLAVONE] | 151.5 | 120.8
c1ccc(-c2ccc(C(c3ccccc3)n3ccnc3)cc2)cc1 (centres undefined) [BIFONAZOLE] | 121.1 | 115.7
O=C([O-])Cc1ccccc1Nc1c(Cl)cccc1Cl.[Na+] [DICLOFENAC SODIUM] | 110.6 | 71.01
CC(C)=CCc1c(O)cc2oc(C)cc(=O)c2c1O [PEUCENIN] | 137.1 | 169
CN(C)[C@@H]1C(O)=C(C(N)=O)C(=O)[C@@]2(O)C(O)=C3C(=O)c4c(O)cccc4[C@@](C)(O)[C@H]3[C@H](O)[C@@H]12 [OXYTETRACYCLINE] | 61.86 | 95.2
NC(=O)NCC(N)C(=O)O (centres undefined) [ALBIZZIINE] | 118.1 | 110.8
CCc1ccc(CCOc2ccc(CC3SC(=O)NC3=O)cc2)nc1.Cl (centres undefined) [PIOGLITAZONE HYDROCHLORIDE] | 122.7 | 88.74
CCCCC(=O)N(Cc1ccc(-c2ccccc2-c2nnn[nH]2)cc1)[C@H](C(=O)O)C(C)C | 67.47 | 56.31
COC(=O)[C@]1(C)CC[C@]2(C)CC[C@]3(C)C4=CCc5c(cc(OC(C)=O)c(OC(C)=O)c5C)[C@]4(C)CC[C@@]3(C)[C@@H]2C1 [PRISTIMEROL DIACETATE] | 94.14 | 83.45
Cl.O=C1CC[C@@]2(O)[C@H]3Cc4ccc(O)c5c4[C@@]2(CCN3CC2CC2)[C@H]1O5 [NALTREXONE HYDROCHLORIDE] | 71.98 | 86.99
COc1cc(O)c2c(=O)cc(-c3ccc(O)cc3)oc2c1 [GENKWANIN] | 116.7 | 107
CN1CCc2c(c3ccccc3n2Cc2ccccc2)C1.CN1CCc2c(c3ccccc3n2Cc2ccccc2)C1.O=S(=O)(O)c1cccc2c(S(=O)(=O)O)cccc12 | 69.52 | 77.15
C[C@H]1C(=O)CC[C@@H]2[C@]1(C)CC[C@H]1[C@@]2(C)CC[C@@]2(C)[C@@H]3CC(C)(C)CC[C@]3(C)CC[C@]12C [FRIEDELINE] | 112 | 90.31

SMILES | residual activity [1] [%] | residual activity [2] [%]
COc1cc2c(cc1OC)[C@@H]1C(=O)c3ccc(OC)c(CC=C(C)C)c3O[C@@H]1CO2 [ROTENONIC ACID, METHYL ETHER] | 77.03 | 108.1
CCCC(=O)O[C@]1(C(=O)CO)CC[C@H]2[C@@H]3CCC4=CC(=O)CC[C@]4(C)[C@H]3[C@@H](O)C[C@@]21C [HYDROCORTISONE BUTYRATE] | 100.3 | 98.06
NC(=O)c1ccccc1O [SALICYLAMIDE] | 85.6 | 94.84
C=CCSCC=C [DIALLYL SULFIDE] | 82.5 | 95.82
COc1cc(-c2coc3cc(OCc4ccccc4)c(OC)c(O)c3c2=O)cc(OCc2ccccc2)c1OC [IRIGENIN, DIBENZYL ETHER] | 92.09 | 93.33
C=CCCCCCCCCCCCC(O)CC(O)CO (stereo in doubt; form 1) [AVOCADENE] | 107.8 | 100.3
COC(=O)C1=C(C)NC(C)=C(C(=O)OC)C1c1ccccc1[N+](=O)[O-] [NIFEDIPINE] | 75.83 | 170.6
CO[C@H]1/C=C/O[C@@]2(C)Oc3c(C)c(O)c4c(O)c(c5c(nc6cc(C)ccn65)c4c3C2=O)NC(=O)/C(C)=C\C=C\[C@H](C)[C@H](O)[C@@H](C)[C@@H](O)[C@@H](C)[C@H](OC(C)=O)[C@@H]1C [RIFAXIMIN] | 63.34 | 81.07
CC(C)C(=O)Nc1ccc([N+](=O)[O-])c(C(F)(F)F)c1 [FLUTAMIDE] | 130.9 | 133.6
CN(C)CCCN1c2ccccc2CCc2ccc(Cl)cc21.Cl [CLOMIPRAMINE HYDROCHLORIDE] | 43.58 | 78.81
ClC1=C(Cl)C2(Cl)C3C4C=CC(C4)C3C1(Cl)C2(Cl)Cl (centres undefined) [ALDRIN] | 121.9 | 124.9
CC12CCC3C(CC3(C)C)C(C)(CCC1=O)O2 (centres undefined) [3,7-EPOXYCARYOPHYLLAN-6-ONE] | 72.4 | 93.4
O=C(O)CCCCCCCC(=O)O [AZELAIC ACID] | 100.4 | 107.2
COc1ccc2c(c1)OCC(Cc1ccc(OC)c(OC)c1)C2=O (centres undefined) [DEOXYSAPPANONE B TRIMETHYL ETHER] | 174.5 | 150.7
CC(CCc1ccc(O)cc1)NCCc1ccc(O)c(O)c1.Cl (centres undefined) [DOBUTAMINE HYDROCHLORIDE] | 91.62 | 105.8
CC(C)NNC(=O)c1ccncc1.O=S(=O)(O)O [IPRONIAZID SULFATE] | 122.7 | 101.8
O=C(O)c1cc(O)c2ccc(Cl)cc2n1 [7-CHLOROKYNURENIC ACID] | 93.09 | 89.9
CN(N=O)C(=O)N[C@@H](C=O)[C@@H](O)[C@H](O)[C@H](O)CO [STREPTOZOCIN] | 93.43 | 100.3
N#C/C(=C\c1ccc(O)cc1)C(=O)O [alpha-CYANO-4-HYDROXYCINNAMIC ACID] | 112.8 | 105.3
COc1c2c(cc3c1OCO3)[C@]13C=C[C@H](OC)C[C@H]1N(C2)C[C@@H]3O [AMBELLINE] | 91.95 | 88.47
C[C@@](Cc1ccc(O)c(O)c1)(NN)C(=O)O.O [CARBIDOPA] | 134.5 | 113.1
